{"source": "patent US10934280B2", "about": "“Condensed thiophene derivatives useful as NaPi-IIb inhibitors” (Eli Lilly and Company, priority 2016, dated 2021)", "key": {"human NaPi-IIb": {"target": "T1, human NaPi-IIb (Homo sapiens, UniProt O95436)", "T1 construct": "expressed in transfected cells", "T1 sequence (O95436 1-690)": "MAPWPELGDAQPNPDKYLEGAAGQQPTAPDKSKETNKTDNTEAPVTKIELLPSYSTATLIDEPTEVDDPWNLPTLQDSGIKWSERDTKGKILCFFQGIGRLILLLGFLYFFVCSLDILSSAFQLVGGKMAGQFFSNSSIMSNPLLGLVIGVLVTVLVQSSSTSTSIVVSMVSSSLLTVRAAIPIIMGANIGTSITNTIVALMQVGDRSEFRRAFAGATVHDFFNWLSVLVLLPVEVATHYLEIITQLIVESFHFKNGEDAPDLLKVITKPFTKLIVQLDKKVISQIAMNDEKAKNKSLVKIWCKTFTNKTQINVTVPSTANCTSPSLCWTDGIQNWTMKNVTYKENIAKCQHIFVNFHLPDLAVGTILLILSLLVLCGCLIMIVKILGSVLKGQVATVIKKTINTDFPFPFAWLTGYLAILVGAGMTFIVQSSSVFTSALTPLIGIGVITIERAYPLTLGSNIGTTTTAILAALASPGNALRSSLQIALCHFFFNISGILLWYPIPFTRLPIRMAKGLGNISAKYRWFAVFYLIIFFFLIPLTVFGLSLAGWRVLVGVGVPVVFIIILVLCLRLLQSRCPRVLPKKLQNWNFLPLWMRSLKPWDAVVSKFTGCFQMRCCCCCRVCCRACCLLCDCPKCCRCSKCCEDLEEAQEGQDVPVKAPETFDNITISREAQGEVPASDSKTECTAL", "test": "Inhibition of 33P uptake in human NaPi-IIb T-REX-CHO stable cell line", "format": "cell-based", "conditions": "60 min at RT, geometric mean (SD), read-out: h NaPi-IIb rel IC50 (nM), (SD)", "protocol": "Inhibition of ^33P uptake is measured in human and mouse NaPi-IIb T-REX™-CHO stable cell lines. cDNA for NaPi-IIb is subcloned in plasmid SLC34A2 pcDNA5/TO (human) and SLC34A2 pcDNA5/TO (mouse) and stable cell lines are generated from clonal isolation for both human and mouse respectively. Mouse and human stable lines are maintained in continuous culture in growth media (Dulbecco's Modified Eagle Medium: Nutrient Mixture F-12 (3:1), 10% Heat Inactivated FBS, 1% penicillin/streptomycin/FUNGIEZONE® (HYCLONE™), 20 mM HEPES, 250 μg/mL hygromycin, 5 μg/mL blasticidin). […] Cell plates may remain in the incubator until ready to be assayed. […] The plate is immediately read on a Wallac MICROBETA® Trilux liquid scintillation counter and luminometer after stop solution is added with 1 minute count per well. […] Percent inhibition at all concentrations tested (final assay concentrations 100-0.005 μM) are calculated relative to 1% DMSO (minimum effect), and the effect of 100 μM of a fully efficacious NaPi-IIb inhibitor (maximum effect). IC50 values were calculated using a 4 parameter logistic curve fitting equation. The numbers presented are the geometric means with standard deviation (SD) calculated where n is the number of runs. […]"}, "murine NaPi-IIb": {"target": "T2, murine NaPi-IIb (Mus musculus, UniProt Q9DBP0)", "T2 construct": "expressed in transfected cells", "T2 sequence (Q9DBP0 1-697)": "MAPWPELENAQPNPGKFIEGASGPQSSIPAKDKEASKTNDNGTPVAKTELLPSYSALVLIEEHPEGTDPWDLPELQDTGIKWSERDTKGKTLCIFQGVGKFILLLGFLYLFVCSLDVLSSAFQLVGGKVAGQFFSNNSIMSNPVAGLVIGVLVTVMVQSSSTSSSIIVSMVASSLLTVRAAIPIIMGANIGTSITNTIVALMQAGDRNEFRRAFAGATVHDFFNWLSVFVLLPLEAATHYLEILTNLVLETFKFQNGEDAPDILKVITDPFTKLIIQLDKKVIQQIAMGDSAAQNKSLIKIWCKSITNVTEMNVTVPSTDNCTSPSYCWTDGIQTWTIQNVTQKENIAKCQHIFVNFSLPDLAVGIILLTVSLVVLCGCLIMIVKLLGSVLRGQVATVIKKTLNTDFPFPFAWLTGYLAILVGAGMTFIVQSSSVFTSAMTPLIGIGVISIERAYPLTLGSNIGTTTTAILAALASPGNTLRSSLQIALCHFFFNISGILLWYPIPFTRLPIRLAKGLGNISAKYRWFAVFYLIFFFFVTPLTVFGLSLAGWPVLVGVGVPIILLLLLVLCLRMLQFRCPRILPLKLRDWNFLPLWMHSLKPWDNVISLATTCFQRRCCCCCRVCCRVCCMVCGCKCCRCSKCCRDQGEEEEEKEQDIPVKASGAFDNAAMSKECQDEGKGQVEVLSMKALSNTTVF", "test": "Inhibition of 33P uptake in mouse NaPi-IIb T-REX-CHO stable cell line", "format": "cell-based", "conditions": "60 min at RT, geometric mean (SD), read-out: m NaPi-IIb rel IC50 (nM), (SD)", "protocol": "Inhibition of ^33P uptake is measured in human and mouse NaPi-IIb T-REX™-CHO stable cell lines. cDNA for NaPi-IIb is subcloned in plasmid SLC34A2 pcDNA5/TO (human) and SLC34A2 pcDNA5/TO (mouse) and stable cell lines are generated from clonal isolation for both human and mouse respectively. Mouse and human stable lines are maintained in continuous culture in growth media (Dulbecco's Modified Eagle Medium: Nutrient Mixture F-12 (3:1), 10% Heat Inactivated FBS, 1% penicillin/streptomycin/FUNGIEZONE® (HYCLONE™), 20 mM HEPES, 250 μg/mL hygromycin, 5 μg/mL blasticidin). Cells are harvested from T225 cell culture flasks (CORNING®) using 0.25% Trypsin, and plated in 96 well CYTOSTAR-T™ scintillating microplates (Amersham Systems) at 40,000 cells/well in 100 μL of growth media plus 100 ng/mL of tetracycline. Cell plates are incubated overnight at 37° C. and 5% C02. The next day, compounds are serially diluted using one to three dilutions in 100% DMSO. Cell plates may remain in the incubator until ready to be assayed. A cell plate is removed from the incubator and media removed. Cells are washed 3 times with 200 μL assay buffer (137 mM NaCl, 5.4 mM KCl, 2.8 mM CaCl2), 1.2 mM MgSO4, and 14 mM Tris-HCl buffer, pH˜7.5), removing buffer in between washes. Serially diluted compounds in DMSO are further diluted 50 fold in assay buffer and 50 μL added to the CYTOSTAR-T™ assay plate, immediately followed by the addition of 50 μL of ^33P solution (PERKIN-ELMER®, Walton, Mass.; 0.05 μCi/50 μL). CYTOSTAR-T™ assay plates are covered with foil to protect from light and incubated for 60 min at RT. After the 60 min incubation, 100 μL of a stop solution (assay buffer+400 μM Phloretin) is added to the assay plate to stop ^33P uptake. The plate is immediately read on a Wallac MICROBETA® Trilux liquid scintillation counter and luminometer after stop solution is added with 1 minute count per well. Each plate may be processed separately and staggered in time so there may be no delay in counting after stop solution is added. Percent inhibition at all concentrations tested (final assay concentrations 100-0.005 μM) are calculated relative to 1% DMSO (minimum effect), and the effect of 100 μM of a fully efficacious NaPi-IIb inhibitor (maximum effect). IC50 values were calculated using a 4 parameter logistic curve fitting equation. The numbers presented are the geometric means with standard deviation (SD) calculated where n is the number of runs. Thus. Table 1 describes the relative IC50 values for Examples 1-28 against human NaPi-IIb and murine NaPi-IIb, respectively."}}}
{"smiles": "CN1CCN(CC(=O)N2C3CCC2CN(Cc2cccc(C(=O)Nc4sc5c(c4C(=O)Nc4cc(F)c(CCc6ccc(C(=O)O)cc6)c(F)c4)CCCC5)c2)C3)CC1", "note": "[Example 26, 4-[2-[2,6-difluoro-4-[[2-[[3-[[8-[2-(4-methylpiperazin-1-yl)acetyl]-3,8-diazabicyclo[3.2.1]octan-3-yl]methyl]benzoyl]amino]-4,5,6,7-tetrahydrobenzothiophene-3-carbonyl]amino]phenyl]ethyl]benzoic Acid]", "values": [{"measurement": "IC50", "setting": "human NaPi-IIb", "value": 2.4, "unit": "nM"}, {"measurement": "IC50", "setting": "murine NaPi-IIb", "value": 15.3, "unit": "nM"}]}
